Experimental data: PubChem BioAssay AID1919009 (Molecular Pharmacology Branch, DTP, NCI, 2023)

Tested on: K24384-001-R-PDC complex spheroid growth
Test: Anticancer human tumor K24384-001-R-PDC patient-derived pancreatic adenocarcinoma cell line growth inhibition [AhR]
Conditions: for IC50: curve of first compound; for viability, T/C: stronger effect = lower value
Outline: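 Agents were dosed in half-log steps down from roughly clinical Cmax, or from 10 microM where Cmax was unknown, alone and with AhR antagonists. Read-out: percent test/control growth of tumor spheroids containing HUVEC and MSC stromal cells.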

[1] = second compound 0.1 µM, first compound 0.00949 µM
[2] = second compound 0.1 µM, first compound 0.03 µM
[3] = second compound 0.1 µM, first compound 0.0949 µM
[4] = second compound 0.1 µM, first compound 0.3 µM
[5] = second compound 0.316 µM, first compound 0.00949 µM
[6] = second compound 0.316 µM, first compound 0.03 µM
[7] = second compound 0.316 µM, first compound 0.0949 µM
[8] = second compound 0.316 µM, first compound 0.3 µM
[9] = second compound 1 µM, first compound 0.00949 µM
[10] = second compound 1 µM, first compound 0.03 µM
[11] = second compound 1 µM, first compound 0.0949 µM
[12] = second compound 1 µM, first compound 0.3 µM
[13] = second compound 3.16 µM, first compound 0.00949 µM
[14] = second compound 3.16 µM, first compound 0.03 µM
[15] = second compound 3.16 µM, first compound 0.0949 µM
[16] = second compound 3.16 µM, first compound 0.3 µM
[17] = second compound 10 µM, first compound 0.00949 µM
[18] = second compound 10 µM, first compound 0.03 µM
[19] = second compound 10 µM, first compound 0.0949 µM
[20] = second compound 10 µM, first compound 0.3 µM
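For viability, T/C in this document: percent of DMSO vehicle-treated spheroid viability set as 100%.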

CC1COCCN1c1cc(C2(S(C)(=N)=O)CC2)nc(-c2ccnc3[nH]ccc23)n1 (stereo not given) + Cc1cncc(-c2nc(NCCc3c[nH]c4ccccc34)c3ncn(C(C)C)c3n2)c1
IC50 (second compound 0.1 µM): 3.22 µM | IC50 (second compound 0.316 µM): 4.43 µM | IC50 (second compound 1 µM): 4.74 µM | IC50 (second compound 3.16 µM): 1.27 µM | IC50 (second compound 10 µM): < 0.0316 µM | viability, T/C (second compound 0.1 µM, first compound 0.0316 µM): 97.7% | viability, T/C (second compound 0.1 µM, first compound 0.1 µM): 105% | viability, T/C (second compound 0.1 µM, first compound 0.316 µM): 105% | viability, T/C (second compound 0.1 µM, first compound 1 µM): 84.1% | viability, T/C (second compound 0.1 µM, first compound 3.16 µM): 51.2% | viability, T/C (second compound 0.1 µM, first compound 10 µM): 32.2% | viability, T/C (second compound 0.316 µM, first compound 0.0316 µM): 94.7% | viability, T/C (second compound 0.316 µM, first compound 0.1 µM): 102% | viability, T/C (second compound 0.316 µM, first compound 0.316 µM): 96.3% | viability, T/C (second compound 0.316 µM, first compound 1 µM): 87.3% | viability, T/C (second compound 0.316 µM, first compound 3.16 µM): 58.8% | viability, T/C (second compound 0.316 µM, first compound 10 µM): 29.1% | viability, T/C (second compound 1 µM, first compound 0.0316 µM): 116% | viability, T/C (second compound 1 µM, first compound 0.1 µM): 113% | viability, T/C (second compound 1 µM, first compound 0.316 µM): 118% | viability, T/C (second compound 1 µM, first compound 1 µM): 95% | viability, T/C (second compound 1 µM, first compound 3.16 µM): 61.1% | viability, T/C (second compound 1 µM, first compound 10 µM): 31.1% | viability, T/C (second compound 3.16 µM, first compound 0.0316 µM): 80.6% | viability, T/C (second compound 3.16 µM, first compound 0.1 µM): 74.8% | viability, T/C (second compound 3.16 µM, first compound 0.316 µM): 70% | viability, T/C (second compound 3.16 µM, first compound 1 µM): 52% | viability, T/C (second compound 3.16 µM, first compound 3.16 µM): 37.8% | viability, T/C (second compound 3.16 µM, first compound 10 µM): 25.9% | viability, T/C (second compound 10 µM, first compound 0.0316 µM): 10.3% | viability, T/C (second compound 10 µM, first compound 0.1 µM): 11.3% | viability, T/C (second compound 10 µM, first compound 0.316 µM): 11.8% | viability, T/C (second compound 10 µM, first compound 1 µM): 11.8% | viability, T/C (second compound 10 µM, first compound 3.16 µM): 8.29% | viability, T/C (second compound 10 µM, first compound 10 µM): 10.9%

Nc1ncn(C2CC(O)C(CO)S2)c(=O)n1 (stereo not given) + Cc1cncc(-c2nc(NCCc3c[nH]c4ccccc34)c3ncn(C(C)C)c3n2)c1
IC50 (second compound 0.1 µM): > 0.3 µM | IC50 (second compound 0.316 µM): > 0.3 µM | IC50 (second compound 1 µM): > 0.3 µM | IC50 (second compound 3.16 µM): < 0.000949 µM | IC50 (second compound 10 µM): < 0.000949 µM | viability, T/C (second compound 0.1 µM, first compound 0.000949 µM): 122% | viability, T/C (second compound 0.1 µM, first compound 0.003 µM): 126% | viability, T/C [1]: 116% | viability, T/C [2]: 101% | viability, T/C [3]: 78.1% | viability, T/C [4]: 73.5% | viability, T/C (second compound 0.316 µM, first compound 0.000949 µM): 134% | viability, T/C (second compound 0.316 µM, first compound 0.003 µM): 137% | viability, T/C [5]: 122% | viability, T/C [6]: 119% | viability, T/C [7]: 98.1% | viability, T/C [8]: 84% | viability, T/C (second compound 1 µM, first compound 0.000949 µM): 173% | viability, T/C (second compound 1 µM, first compound 0.003 µM): 162% | viability, T/C [9]: 177% | viability, T/C [10]: 129% | viability, T/C [11]: 111% | viability, T/C [12]: 96% | viability, T/C (second compound 3.16 µM, first compound 0.000949 µM): 28.2% | viability, T/C (second compound 3.16 µM, first compound 0.003 µM): 38.4% | viability, T/C [13]: 43.5% | viability, T/C [14]: 28.2% | viability, T/C [15]: 29.9% | viability, T/C [16]: 27.4% | viability, T/C (second compound 10 µM, first compound 0.000949 µM): 18.1% | viability, T/C (second compound 10 µM, first compound 0.003 µM): 28.5% | viability, T/C [17]: 24.7% | viability, T/C [18]: 12.8% | viability, T/C [19]: 15.5% | viability, T/C [20]: 18.5%

O=C(C=Cn1cnc(-c2cc(C(F)(F)F)cc(C(F)(F)F)c2)n1)NNc1cnccn1 + Cc1cncc(-c2nc(NCCc3c[nH]c4ccccc34)c3ncn(C(C)C)c3n2)c1
IC50 (second compound 0.1 µM): 0.209 µM | IC50 (second compound 0.316 µM): 0.242 µM | IC50 (second compound 1 µM): 0.229 µM | IC50 (second compound 3.16 µM): 0.196 µM | IC50 (second compound 10 µM): < 0.00949 µM | viability, T/C [1]: 93.8% | viability, T/C [2]: 94.8% | viability, T/C [3]: 73.2% | viability, T/C [4]: 39.3% | viability, T/C (second compound 0.1 µM, first compound 0.949 µM): 27.4% | viability, T/C (second compound 0.1 µM, first compound 3 µM): 23.6% | viability, T/C [5]: 90.8% | viability, T/C [6]: 95.4% | viability, T/C [7]: 72.6% | viability, T/C [8]: 45.3% | viability, T/C (second compound 0.316 µM, first compound 0.949 µM): 29.2% | viability, T/C (second compound 0.316 µM, first compound 3 µM): 24.8% | viability, T/C [9]: 116% | viability, T/C [10]: 111% | viability, T/C [11]: 79.6% | viability, T/C [12]: 40.6% | viability, T/C (second compound 1 µM, first compound 0.949 µM): 26.4% | viability, T/C (second compound 1 µM, first compound 3 µM): 19.9% | viability, T/C [13]: 94.9% | viability, T/C [14]: 90.6% | viability, T/C [15]: 74.7% | viability, T/C [16]: 35.1% | viability, T/C (second compound 3.16 µM, first compound 0.949 µM): 25.1% | viability, T/C (second compound 3.16 µM, first compound 3 µM): 20.4% | viability, T/C [17]: 9.12% | viability, T/C [18]: 12.6% | viability, T/C [19]: 17.1% | viability, T/C [20]: 16.6% | viability, T/C (second compound 10 µM, first compound 0.949 µM): 15.1% | viability, T/C (second compound 10 µM, first compound 3 µM): 12.8%
